Laboratory results from US20230390274A1 (EPIRIUM BIO INC., priority 2020, published 2023).

Biological target: 15-PGDH/HPGD (Homo sapiens (Human), UniProt P15428)
Assay: hPGDH inhibitor screening biochemical assay
Conditions: 10 nM 15-PGDH/HPGD, 15 μM PGE2, 0.25 mM NAD; read-out: hPGDH: Average IC50
Summary of the method: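 10 nM recombinant 15-PGDH was preincubated with compound (10-point) for 10 min at 37° C. in 50 mM Tris-HCl pH 7.5, 0.01% Tween 20. Then 15 μM PGE2 and 0.25 mM NAD+ were added for 10 min at rt. NADH fluorescence (ex/em 340/485 nm) gave % inhibition versus 1% DMSO and a four-parameter IC50.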

Sequence of 15-PGDH/HPGD (P15428 whole entry): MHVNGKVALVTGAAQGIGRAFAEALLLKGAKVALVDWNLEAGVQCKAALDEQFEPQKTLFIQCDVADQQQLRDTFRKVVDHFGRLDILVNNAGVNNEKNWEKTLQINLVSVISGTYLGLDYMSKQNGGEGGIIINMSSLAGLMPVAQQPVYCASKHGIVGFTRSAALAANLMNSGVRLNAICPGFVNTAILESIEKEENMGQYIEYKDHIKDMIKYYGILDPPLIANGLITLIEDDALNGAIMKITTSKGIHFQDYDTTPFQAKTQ

| SMILES | IC50 [nM] |
| --- | --- |
| Cc1nc(-c2ccc(-n3c(CCC(C)(C)O)cc4cc(C(=O)N5CCC(F)(F)CC5)cnc43)cc2)no1 [A-337, (4,4-difluoropiperidin-1-yl)(2-(3-hydroxy-3-methylbutyl)-1-(4-(5-methyl-1,2,4-oxadiazol-3-yl)phenyl)-1H-pyrrolo[2,3-b]pyridin-5-yl)methanone] | < 100 |
| C[C@H]1CCCN(C(=O)c2cnc3c(ccn3-c3ccc(C(=O)O)cc3)c2)C1 [A-339, (S)-4-(5-(3-methylpiperidine-1-carbonyl)-1H-pyrrolo[2,3-b]pyridin-1-yl)benzoic acid] | < 100 |
| COCCc1nc2cc(C(=O)N3CCC(F)CC3)cnc2n1-c1ccc(OC)cc1 [A-342] | ≥ 1000 |
| NC(=O)c1cncc(-n2ccc3cc(C(=O)N4CCC(F)CC4)cnc32)c1 [A-346] | < 100 |
| NC(=O)c1ccc(-n2ccc3cc(C(=O)N4CCC(F)CC4)cnc32)cn1 [A-347] | < 100 |
| NC(=O)c1cncc(-n2ccc3cc(C(=O)N4CCCCC4)cnc32)c1 [A-348] | < 100 |
| CNC(=O)c1cncc(-n2ccc3cc(C(=O)N4CCCCC4)cnc32)c1 [A-349] | < 100 |
| CN(C)C(=O)c1cncc(-n2ccc3cc(C(=O)N4CCCCC4)cnc32)c1 [A-350] | < 100 |
| N#Cc1cncc(-n2ccc3cc(C(=O)N4CCCCC4)cnc32)c1 [A-351] | < 100 |

Same assay, conditions: Table 1, PGDH inhibitors with a 6-5 ring core; read-out: hPGDH: IC50

| SMILES | IC50 [nM] |
| --- | --- |
| COc1ccc(-n2cnc3cc(C(=O)N4CCC(F)(F)CC4)cnc32)cc1 [drawing 78] | 57.4 |
| COc1ccc(-n2cnc3cc(C(=O)N4CCC(F)CC4)cnc32)cc1 [drawing 79] | 19.5 |
| COc1ccc(-n2cnc3cc(C(=O)N4CCCCC4)cnc32)cc1 [drawing 80] | 20.1 |
| O=C(c1cnc2c(ccn2-c2cnccn2)c1)N1CCCCC1 [drawing 81] | 0.6 |
| O=C(c1ccc2c(c1)ncn2-c1ccc(O)c(Cl)c1)N1CCCCC1 [drawing 82] | 2.5 |
| O=C(c1ccc2c(c1)ncn2-c1cccc(Cl)c1)N1CCC(F)(F)C1 [drawing 83] | 1260 |
| O=C(c1ccc2c(c1)ncn2-c1cccc(Cl)c1)N1CCC(O)C1 (centres unmarked) [drawing 84] | 2870 |
| NC(=O)CCc1nc2cc(C(=O)N3CCCCC3)ccc2n1-c1cccc(Cl)c1 [drawing 85] | 44.9 |
| O=C1CCN(C(=O)c2ccc3c(c2)ncn3-c2cccc(Cl)c2)C1 [drawing 88] | 4540 |
| Cc1nc2cc(C(=O)N3CCCCC3)ccc2n1-c1cccc(Cl)c1 [drawing 89] | 5.6 |
| O=C(c1ccc2c(c1)ncn2-c1cccc(Cl)c1)N1CCC(Cl)C1 (centres unmarked) [drawing 90] | 64.7 |
| O=C(c1ccn2c(-c3cccc(Cl)c3)cnc2c1)N1CCCCC1 [drawing 93] | 5.7 |
| O=C(c1ccc2c(c1)ncn2-c1cccc(Cl)c1)N1CCC(F)(F)CC1 [drawing 96] | 12.2 |
| O=C(c1ccc2c(c1)ncn2-c1cccc(Cl)c1)N1CC2CCC(C2)C1 [drawing 97] | 46.6 |
| O=C(c1ccc2c(c1)ncn2-c1cccc(Cl)c1)N1CCCCC1 [drawing 98] | 2.7 |
| O=C(c1ccc2c(c1)ncn2-c1cccc(Cl)c1)N1CC2(CCC2)C1 [drawing 99] | 43.9 |
| O=C(c1ccc2c(c1)ncn2-c1cccc(Cl)c1)N1CCCCCC1 [drawing 101] | 3.2 |
| O=C(c1ccc2c(c1)ncn2-c1cccc(Cl)c1)N1CC2CCCC2C1 (centres unmarked) [drawing 102] | 24.9 |
| O=C(c1ccc2c(c1)c(Cl)cn2-c1cccc(Cl)c1)N1CCCCC1 [drawing 104] | 10.6 |
| O=C(c1cnc2c(c1)ncn2-c1cccc(Cl)c1)N1CCCCC1 [drawing 106] | 12.8 |
| O=C(c1cnc2c(-c3cccc(Cl)c3)cnn2c1)N1CCCCC1 [drawing 107] | 49.3 |
| O=C(c1ccc2c(c1)nnn2-c1cccc(Cl)c1)N1CCCCC1 [drawing 108] | 3.1 |
| COc1ccc(-n2cnc3cc(C(=O)N4CCC(F)CC4)ccc32)cc1 [drawing 109] | 43.7 |
| COc1ccc(-n2cnc3cc(C(=O)N4CCCCC4)ccc32)cc1 [drawing 110] | 6.4 |
| O=C(c1ccc2c(cnn2-c2cccc(Cl)c2)c1)N1CCCCC1 [drawing 111] | 5.8 |
| O=C(c1ccc2c(ccn2-c2cccc(Cl)c2)c1)N1CCCCC1 [drawing 112] | 0.5 |

Same assay, conditions: Table 2, PGDH inhibitors with a phenyl core; read-out: hPGDH: IC50

| SMILES | IC50 [nM] |
| --- | --- |
| COc1cc(C(=O)N2CCCCC2)ccc1COc1ccccc1Cl [drawing 115] | 8.5 |
| COc1ccccc1C(=O)N(C)c1ccc(C(=O)N2CCCCC2)cc1 [drawing 116] | 2280 |
| O=C(c1ccc(COc2ccccc2Cl)cc1)N1CCCCC1 [drawing 117] | 18.6 |
| COc1ccccc1C(=O)Nc1ccc(C(=O)N2CCCCC2)cc1 [drawing 118] | 27.1 |
| O=C(c1ccc(COc2ccccc2Br)cc1)N1CCCCC1 [drawing 120] | 3.1 |

Test system: not listed separately
Assay: Compound stability in mouse liver microsomes
Format: in vitro ADME
Conditions: 37° C.
Description: A microsomal mixture comprising mouse liver microsomes and a potassium phosphate buffer was prepared at a concentration of 1.428 mg/mL in 2 mL tubes. 1.6 μL of test compound or imipramine as a positive control was added to the mixture, and 70 μL was transferred to a 96 well plate and pre-incubated at 37° C. for 5 minutes. After pre-incubation, […] 30 μL of NADPH (3.33 mM in potassium phosphate buffer) was added. The reaction mixtures were incubated at 37° C. for 15 and 45 minutes. Reactions without NADPH and buffer controls (minus NADPH) were conducted to rule out non-NADPH metabolism and chemical instability in the incubation buffer. The reactions were quenched with 100 μL ice cold acetonitrile containing an internal standard. The plates were centrifuged at 4000 RPM for 15 minutes and 100 μL aliquots were analyzed for parent compound disappearance by LC-MS/MS. The peak area ratios of analyte versus internal standard were used to calculate the percent remaining at the end of 45 minutes.

| SMILES | % Remaining at 45 Minutes (Mouse Liver Microsomes + NADPH) [%] |
| --- | --- |
| NC(=O)c1ccc(-n2ccc3cc(C(=O)N4CCC(F)CC4)cnc32)cc1 [Formula IX] | 70 |
| CNC(=O)c1ccc(-n2ccc3cc(C(=O)N4CCCCC4)cnc32)cc1 [Formula VIII] | 80 |
| CNC(=O)c1ccc(-n2ccc3cc(C(=O)N4CCC(F)CC4)cnc32)cc1 [Formula VII] | 88 |
| Cc1c(C(=O)N2CCC(F)CC2)cnc2c1ccn2-c1ccc(C(N)=O)cc1 [Formula VI] | 89 |
| CN(C)C(=O)c1ccc(-n2ccc3cc(C(=O)N4CCCCC4)cnc32)cc1 [Formula V] | 86 |
| NC(=O)c1ncc(-n2ccc3cc(C(=O)N4CCCCC4)cnc32)cn1 [Formula XII] | 81 |
| O=C(c1cnc2c(ccn2-c2ccc(O)nc2)c1)N1CCCCC1 [Formula XIV] | 74 |

Test system: not listed separately
Assay: Pharmacokinetic study in mice, intravenous 1 mg/kg
Format: in vivo, C57BL/6 mice
Conditions: not given
Description: Each mice PK study consisted of nine male C57BL/6 mice per group with sparse sampling design (n=3 mice per time point). The animals from intravenous groups were dosed with solution formulation of compounds via tail vein at 1 mg/kg dose. Ten compounds were screened in mice and one compound (the compound of Formula IV) was dosed in rat (n=3; serial sampling) following intravenous dose administration at 1 mg/kg dose. The solution formulation for compounds was prepared in 5% v/v DMA, 25% v/v PEG-400, and 70% v/v HPBCD (30% w/v); 15% v/v DMA, 5% Solutol HS-15, and 80% 1:1 PEG-300: Normal saline (2.25%); or 10% v/v DMA, 25% PEG-400, and 65% HPBCD (30% w/v solution). The dosing volume was 1 and 5 mL/kg for intravenous dose in rat and mice respectively. Blood samples (approximately 60 μL from mice and 120 μL from rats) were collected under light isoflurane anesthesia from a set of three mice at 0, 0.08, 0.25, 0.5, 1, 2, 4, 8, 12, and 24 hours post-dose. Plasma was harvested by centrifugation of blood and stored at −70±10° C. until analysis. Fit-for purpose LC-MS/MS method was developed and samples were processed by protein precipitation method. Non-Compartmental-Analysis tool of Phoenix WinNonlinR (Version 8.0) was used to assess the pharmacokinetic parameters. The areas under the concentration time curve (AUClast and AUCinf) were calculated by linear trapezoidal rule. The terminal elimination rate constant, Ke was determined by regression analysis of the linear terminal portion of the log plasma concentration-time curve. The terminal half-life (T1/2) was estimated at 0.693/ke. CLIV=Dose/AUCinf; Vss=MRT×CLIV.

| SMILES | AUCinf [ng·h/mL] | AUClast [ng·h/mL] | C0/Cmax [ng/mL] | CL [mL/min/kg] | T1/2 [min] | Vss [L/kg] |
| --- | --- | --- | --- | --- | --- | --- |
| NC(=O)c1ccc(-n2ccc3cc(C(=O)N4CCC(F)CC4)cnc32)cc1 [Formula IX] | 156.23 | 156.13 | 749.07 | 106.68 | 12 | 1.52 |
| CNC(=O)c1ccc(-n2ccc3cc(C(=O)N4CCCCC4)cnc32)cc1 [Formula VIII] | 156.49 | 156.43 | 1012.93 | 106.5 | 26.4 | 1.58 |
| CNC(=O)c1ccc(-n2ccc3cc(C(=O)N4CCC(F)CC4)cnc32)cc1 [Formula VII] | 214.11 | 211.95 | 633.31 | 77.84 | 20.4 | 1.56 |
| Cc1c(C(=O)N2CCC(F)CC2)cnc2c1ccn2-c1ccc(C(N)=O)cc1 [Formula VI] | 259.43 | 256.19 | 571.21 | 64.24 | 42 | 2.52 |
| CN(C)C(=O)c1ccc(-n2ccc3cc(C(=O)N4CCCCC4)cnc32)cc1 [Formula V] | 263.35 | 262.46 | 1442.49 | 63.29 | 18 | 0.76 |
| NC(=O)c1ncc(-n2ccc3cc(C(=O)N4CCCCC4)cnc32)cn1 [Formula XII] | 129.4 | 117.19 | 490.48 | 128.8 | 38.4 | 5.16 |
| O=C(c1cnc2c(ccn2-c2ccc(O)nc2)c1)N1CCCCC1 [Formula XIV] | 96.33 | 88.28 | 165.86 | 173.02 | 16.2 | 3.99 |
